Patent publication US7531545B2, “2-amino-3,4-dihydro-pyrido[3,4-d]pyrimidine derivatives useful as inhibitors of β-secretase (BACE)” (Janssen Pharmaceutica, N.V., priority 2005, dated 2009)

Molecular target: human BACE-1 (Homo sapiens, UniProt P56817)
Test: CEREP BACE Inhibition Assay
Format: biochemical
Conditions: recombinant enzyme; for inhibition at 1 µM / inhibition at 0.3 µM: percent inhibition of the control activity; for inhibition at 1 µM: read-out: % Inhibition @ 1.0 μM; for IC50: read-out: IC50
Procedure: More specifically the assay, run at 50 μL in a 96 well plate, evaluated the effect of test compound on the activity of the human BACE-1 quantified by measuring the formation of Mca-S-E-V-N-L-NH2 from […], using a recombinant enzyme. The test compound, reference compound or water (control) were added to a buffer containing 0.09 M sodium acetate (pH 4.5) and 0.25 μg BACE-1. Compound interference with the fluorimetric detection method due to autofluorescence was then checked by measurements at the wavelengths defined to evaluate the enzyme activity. […] For control basal measurement, the substrate was omitted from the reaction mixture. […] The standard inhibitory reference compound was OM99-2, which was tested in each experiment at several concentrations to obtain an inhibition curve from which its IC50 value was calculated.

Chain of human BACE-1 (P56817 46-501): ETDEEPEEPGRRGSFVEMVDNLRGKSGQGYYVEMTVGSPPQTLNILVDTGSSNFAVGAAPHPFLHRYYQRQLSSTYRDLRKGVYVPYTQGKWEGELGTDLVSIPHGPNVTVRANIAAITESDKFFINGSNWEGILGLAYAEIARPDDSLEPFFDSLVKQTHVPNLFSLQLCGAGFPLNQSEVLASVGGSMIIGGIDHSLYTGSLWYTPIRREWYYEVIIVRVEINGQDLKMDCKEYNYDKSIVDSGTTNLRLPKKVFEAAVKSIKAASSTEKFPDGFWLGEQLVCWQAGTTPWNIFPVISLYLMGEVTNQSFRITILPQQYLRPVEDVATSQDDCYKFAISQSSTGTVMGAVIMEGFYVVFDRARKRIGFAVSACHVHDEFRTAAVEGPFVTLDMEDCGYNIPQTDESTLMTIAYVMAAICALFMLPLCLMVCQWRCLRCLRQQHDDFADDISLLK

Compound: COCC(=O)NC1=Nc2cnc(Oc3ccccc3)cc2CN1C(Cn1cc(C(C)(C)C)nn1)C1CCCCC1 (stereo in doubt) [Compound 247, N-{3-[2-(4-tert-Butyl-[1,2,3]triazol-1-yl)-1-(S)-cyclohexyl-ethyl]-6-phenoxy-3,4-dihydro-pyrido[3,4-d]pyrimidin-2-yl}-2-methoxy-acetamide]
- inhibition at 1 µM: 3%

Compound: COC(=O)[C@@H](COCc1ccccc1)NC(=O)CC[C@@H](C(C)C)N1Cc2cc(Oc3ccccc3)ncc2N=C1N [Compound 53]
- inhibition at 0.3 µM: 95%
- IC50: 140 nM

Compound: CC(C)[C@H](CCC(=O)N[C@H](COCc1ccccc1)C(=O)O)N1Cc2cc(Oc3ccccc3)ncc2N=C1N [Compound 54]
- inhibition at 0.3 µM: 97%
- IC50: 170 nM

Compound: COC(=O)[C@H](COCc1ccccc1)N(C)C(=O)CC[C@@H](C1CCOCC1)N1Cc2cc(Oc3ccccc3)ncc2N=C1N [Compound 56]
- inhibition at 0.3 µM: 93%
- IC50: 75 nM

Compound: CN(C(=O)CC[C@@H](C1CCOCC1)N1Cc2cc(Oc3ccccc3)ncc2N=C1N)[C@@H](COCc1ccccc1)C(=O)O [Compound 58]
- inhibition at 0.3 µM: 57%
- IC50: 270 nM

Compound: CN(C(=O)CC[C@@H](C1CCOCC1)N1Cc2cc(Oc3ccccc3)ncc2N=C1N)[C@H](COC(C)(C)C)C(=O)O [Compound 60]
- inhibition at 0.3 µM: 91%
- IC50: 100 nM

Compound: COC(=O)[C@H](COC(C)(C)C)NC(=O)CC[C@@H](C1CCCCC1)N1Cc2cc(Oc3ccccc3)ncc2N=C1N [Compound 61]
- inhibition at 0.3 µM: 81%
- IC50: 240 nM

Compound: CC(C)(C)OC[C@H](NC(=O)CC[C@@H](C1CCCCC1)N1Cc2cc(Oc3ccccc3)ncc2N=C1N)C(=O)O [Compound 62]
- inhibition at 0.3 µM: 65%
- IC50: 250 nM

Compound: COC(=O)[C@@H](COC(C)(C)C)NC(=O)CC[C@@H](C1CCCCC1)N1Cc2cc(Oc3ccccc3)ncc2N=C1N [Compound 63, 2-[4-(2-Amino-6-phenoxy-4H-pyrido[3,4-d]pyrimidin-3-yl)-4-(S)-cyclohexyl-butyryl-(R)-amino]-3-tert-butoxy-propionic acid methyl ester]
- inhibition at 0.3 µM: 94%
- IC50: 190 nM

Compound: COC(=O)[C@H](COC(C)(C)C)N(C)C(=O)CC[C@@H](C1CCCCC1)N1Cc2cc(Oc3ccccc3)ncc2N=C1N [Compound 65]
- inhibition at 0.3 µM: 91%
- IC50: 110 nM

Compound: CN(C(=O)CC[C@@H](C1CCCCC1)N1Cc2cc(Oc3ccccc3)ncc2N=C1N)[C@@H](COC(C)(C)C)C(=O)O [Compound 66]
- inhibition at 0.3 µM: 96%
- IC50: 260 nM

Compound: COC(=O)[C@H](COC(C)(C)C)NC(=O)CC[C@@H](C(C)C)N1Cc2cc(Oc3ccccc3)ncc2N=C1N [Compound 69]
- inhibition at 0.3 µM: 57%
- IC50: 340 nM

Compound: CC(C)[C@H](CCC(=O)N[C@@H](COC(C)(C)C)C(=O)O)N1Cc2cc(Oc3ccccc3)ncc2N=C1N [Compound 70]
- inhibition at 0.3 µM: 66%
- IC50: 260 nM

Compound: CC(C)(C)OC(=O)CC[C@@H](C1CCCCC1)N1Cc2cc(Oc3ccccc3)ncc2N=C1N [Compound 75]
- inhibition at 1 µM: 90%
- IC50: 240 nM

Compound: NC1=Nc2cnc(Oc3ccccc3)cc2CN1[C@@H](CCC(=O)N(Cc1nnn[nH]1)C1CCCCC1)C1CCCCC1 [Compound 77, 4-(2-Amino-6-phenoxy-4H-pyrido[3,4-d]pyrimidin-3-yl)-4-(S)—N-dicyclohexyl-N-(1H-tetrazol-5-ylmethyl)-butyramide]
- inhibition at 0.3 µM: 78%
- IC50: 330 nM

Compound: NC1=Nc2cnc(Oc3ccccc3)cc2CN1[C@@H](CCC(=O)N(Cc1ncc[nH]1)C1CCCCC1)C1CCCCC1 [Compound 78, 4-(2-Amino-6-phenoxy-4H-pyrido[3,4-d]pyrimidin-3-yl)-4-(S),N-dicyclohexyl-N-(1H-imidazol-2-ylmethyl)-butyramide]
- inhibition at 0.3 µM: 91%
- IC50: 190 nM

Compound: NC1=Nc2cnc(Oc3ccccc3)cc2CN1[C@@H](CCC(=O)N(Cc1ccncc1)C1CCCCC1)C1CCCCC1 [Compound 79]
- inhibition at 0.3 µM: 88%
- IC50: 150 nM

Compound: NC1=Nc2cnc(Oc3ccccc3)cc2CN1[C@@H](CCC(=O)N(Cc1nnc[nH]1)C1CCCCC1)C1CCCCC1 [Compound 80, 4-(2-Amino-6-phenoxy-4H-pyrido[3,4-d]pyrimidin-3-yl)-4-(S),N-dicyclohexyl-N-(4H-[1,2,4]triazol-3-ylmethyl)-butyramide]
- inhibition at 0.3 µM: 97%
- IC50: 170 nM

Compound: Cn1ccnc1CN(C(=O)CC[C@@H](C1CCCCC1)N1Cc2cc(Oc3ccccc3)ncc2N=C1N)C1CCCCC1 [Compound 83]
- inhibition at 1 µM: 99%
- IC50: 90 nM

Compound: NC1=Nc2cnc(Oc3ccccc3)cc2CN1[C@@H](CCC(=O)N(CC(=O)O)C1CCCCC1)C1CCCCC1 [Compound 84, {[4-(2-Amino-6-phenoxy-4H-pyrido[3,4-d]pyrimidin-3-yl)-4-(S)-cyclohexyl-butyryl]cyclohexyl-amino}-acetic acid]
- inhibition at 0.3 µM: 100%
- IC50: 100 nM

Compound: CC(C)[C@H](CCC(=O)N(CC(=O)O)C1CCCCC1)N1Cc2cc(Oc3ccccc3)ncc2N=C1N [Compound 86]
- inhibition at 0.3 µM: 99%
- IC50: 120 nM

Compound: COC(=O)[C@@H](COC(C)(C)C)NC(=O)CC[C@@H](C(C)C)N1Cc2cc(Oc3ccccc3)ncc2N=C1N [Compound 87]
- inhibition at 0.3 µM: 84%
- IC50: 96 nM

Compound: CC(C)[C@H](CCC(=O)N[C@H](COC(C)(C)C)C(=O)O)N1Cc2cc(Oc3ccccc3)ncc2N=C1N [Compound 88]
- inhibition at 0.3 µM: 98%
- IC50: 100 nM

Compound: NC1=Nc2cnc(Oc3ccccc3)cc2CN1[C@@H](CCC(=O)N1CCCC[C@H]1C(=O)O)C1CCCCC1 [Compound 91]
- inhibition at 0.3 µM: 70%
- IC50: 340 nM

Compound: NC1=Nc2cnc(Oc3ccccc3)cc2CN1[C@@H](CCC(=O)N1CCCC[C@H]1CC(=O)O)C1CCCCC1 [Compound 93]
- inhibition at 0.3 µM: 94%
- IC50: 110 nM

Compound: CC(C)[C@H](CCC(=O)N[C@@H](COC(C)(C)C)c1nnnn1Cc1ccccc1)N1Cc2cc(Oc3ccccc3)ncc2N=C1N [Compound 95]
- inhibition at 0.3 µM: 86%
- IC50: 210 nM

Compound: CC(C)[C@H](CCC(=O)N[C@@H](COC(C)(C)C)c1nnn[nH]1)N1Cc2cc(Oc3ccccc3)ncc2N=C1N [Compound 97, 4-(2-Amino-6-phenoxy-4H-pyrido[3,4-d]pyrimidin-3-yl)-5-methyl-(S)-hexanoic acid [2-(R)-tert-butoxy-1-(1H-tetrazol-5-yl)-ethyl]-amide]
- inhibition at 0.3 µM: 96%
- IC50: 110 nM

Compound: CC(C)[C@H](CCC(=O)N[C@H](COC(C)(C)C)C(=O)N1CCCCC1)N1Cc2cc(Oc3ccccc3)ncc2N=C1N [Compound 98]
- inhibition at 0.3 µM: 72%
- IC50: 150 nM

Compound: CC(C)(C)OC[C@@H](NC(=O)CC[C@@H](C1CCCCC1)N1Cc2cc(Oc3ccccc3)ncc2N=C1N)C(=O)N1CCCCC1 [Compound 100]
- inhibition at 0.3 µM: 93%
- IC50: 110 nM

Compound: CC(C)[C@H](CCC(=O)N[C@@H](COC(C)(C)C)CN1CCCCC1)N1Cc2cc(Oc3ccccc3)ncc2N=C1N [Compound 101]
- inhibition at 0.3 µM: 43%
- IC50: 320 nM

Compound: CC(C)(C)OC[C@H](CN1CCOCC1)NC(=O)CC[C@@H](C1CCCCC1)N1Cc2cc(Oc3ccccc3)ncc2N=C1N [Compound 102, 4-(2-Amino-6-phenoxy-4H-pyrido[3,4-d]pyrimidin-3-yl)-N-(2-(R)-tert-butoxy-1-morpholin-4-ylmethyl-ethyl)-4-(S)-cyclohexyl-butyramide]
- inhibition at 0.3 µM: 55%
- IC50: 460 nM

Compound: CC(C)(C)OC[C@@H](NC(=O)CC[C@@H](C1CCCCC1)N1Cc2cc(Oc3ccccc3)ncc2N=C1N)C(=O)N1CCOCC1 [Compound 103, 4-(2-Amino-6-phenoxy-4H-pyrido[3,4-d]pyrimidin-3-yl)-N-(1-(R)-tert-butoxymethyl-2-morpholin-4-yl-2-oxo-ethyl)-4-(S)-cyclohexyl-butyramide]
- inhibition at 0.3 µM: 96%
- IC50: 82 nM

Compound: CC(C)(C)OC[C@H](CO)NC(=O)CC[C@@H](C1CCCCC1)N1Cc2cc(Oc3ccccc3)ccc2N=C1N [Compound 107, 4-(2-Amino-6-phenoxy-4H-quinazolin-3-yl)-N-(1-(S)-tert-butoxymethyl-2-hydroxy-ethyl)-4-(S)-cyclohexyl-butyramide]
- inhibition at 0.3 µM: 87%

Compound: C[C@@H](CO)NC(=O)[C@@H](COC(C)(C)C)NC(=O)CC[C@@H](C1CCCCC1)N1Cc2cc(Oc3ccccc3)ncc2N=C1N [Compound 108]
- inhibition at 0.3 µM: 94%
- IC50: 140 nM

Compound: CC(CO)NC(=O)C(COC(C)(C)C)NC(=O)CCC(C1CCCCC1)N1Cc2cc(Oc3ccccc3)ncc2N=C1N (centres unmarked) [Compound 109]
- inhibition at 0.3 µM: 95%
- IC50: 120 nM

Compound: Cc1nc([C@H](COC(C)(C)C)NC(=O)CC[C@@H](C2CCCCC2)N2Cc3cc(Oc4ccccc4)ncc3N=C2N)no1 [Compound 110]
- inhibition at 1 µM: 90%
- IC50: 62 nM

Compound: CC(C)(C)OC[C@@H](NC(=O)CC[C@@H](C1CCCCC1)N1Cc2cc(Oc3ccccc3)ncc2N=C1N)C(N)=O [Compound 111]
- inhibition at 1 µM: 100%
- IC50: 110 nM

Compound: CC(C)(C)N(CCO)C(=O)CC[C@@H](C1CCCCC1)N1Cc2cc(Oc3ccccc3)ncc2N=C1N [Compound 115]
- inhibition at 1 µM: 80%
- IC50: 230 nM

Compound: NC1=Nc2cnc(Oc3ccccc3)cc2CN1[C@@H](CCC(=O)NCCN1CCOCC1)C1CCCCC1 [Compound 116]
- inhibition at 1 µM: 54%
- IC50: 630 nM

Compound: CN(CCc1ccccc1)C(=O)CC[C@@H](C1CCCCC1)N1Cc2cc(Oc3ccccc3)ncc2N=C1N [Compound 122, 4-(2-Amino-6-phenoxy-4H-pyrido[3,4-d]pyrimidin-3-yl)-4-(S)-cyclohexyl-N-methyl-N-phenethyl-butyramide]
- inhibition at 1 µM: 97%
